The source made the active and inactive calls. No rule for the calls is given here.
experiment: non-covalent RecA intein splicing inhibitors, dose response, biochemical, cell-free, fluorescence, secondary screen (AID 449750)

| SMILES | AC50 |
| --- | --- |
| CCN(c1ccccc1)c1cc2ccccc2c(=O)[nH]1 | > 38 µM (inactive) |
| COc1ccccc1-n1nnnc1S(=O)(=O)Cc1ccc(Cl)cc1 | > 38 µM (inactive) |
| O=C(CN1CCN(S(=O)(=O)c2ccc(Cl)cc2)CC1)Nc1ccc2c(c1)OCO2 | > 38 µM (inactive) |
| COc1ccccc1/C=C/C1(C(=O)NC2CCCC2)CC(=O)N1c1ccc(F)cc1 (stereo not given) | 9.42 µM |
| O=C1CC(CSc2ccc(Cl)cc2)=NN1 | 25 µM |
| COc1ccc(N(C(=O)CCl)C(C(=O)NCCc2ccccc2)c2cccs2)cc1Cl (stereo not given) | 0.672 µM |
| CCN(CC)c1ccc2oc(=O)c(C)nc2c1 | 37.2 µM |
| O=C(CCCN1C(=O)/C(=C\c2ccccc2)SC1=S)Nc1ccc(O)cc1C(=O)O | 32.7 µM |
| Cc1cc(=O)n(-c2ccc(C(=O)O)cc2)[nH]1 | 1.92 µM |
| COc1ccc(N(C(=O)CCl)C(C(=O)NCCc2ccccc2)c2cccs2)cc1 (stereo not given) | 0.958 µM |
| O=[N+]([O-])c1ccc(Sc2cccc[n+]2[O-])c2nonc12 | 9.27 µM |
| COc1ccccc1Oc1cc(C#N)c(C#N)cc1-n1nnc2ccccc21 | 16.5 µM |
| COc1cccc(-n2nc(C#N)c(Cl)cc2=O)c1 | > 38 µM (inactive) |
| N[C@@H]1CCCC[C@H]1N.O=C(O)C(=O)O.[Pt] | > 38 µM (inactive) |
| CCCc1[nH]nc2c1C(c1ccccc1OC)C(C#N)=C(N)O2 (stereo not given) | > 38 µM (inactive) |
| Nc1ccc2c(c1)C(=O)C(=O)c1ccccc1-2 | 17.6 µM |
| COc1cc(/C=C2/C(=O)N(c3ccc([N+](=O)[O-])cc3)N=C2N2CCOCC2)ccc1O | 31.5 µM |
| COc1cc(C(c2c(C)[nH][nH]c2=O)c2c(C)[nH][nH]c2=O)ccc1OCc1ccc([N+](=O)[O-])cc1 | 6.41 µM |
| CCOC(=O)c1[nH]c(=O)c2ccccc2c1O | 2.65 µM |
| CC(C)c1[nH]nc2c1C(c1cccc(OC(=O)N3CCOCC3)c1)C(C#N)=C(N)O2 (stereo not given) | > 38 µM (inactive) |
| Cc1[nH]c2ccccc2c1C(C#N)(C#N)C1C(=O)c2ccccc2C1=O | 2.58 µM |
| COc1cc(Br)c(C2C(C#N)=C(N)Oc3n[nH]c(-c4cccnc4)c32)cc1OC (stereo not given) | 34.5 µM |
| COc1ccccc1-c1cc(C(F)(F)F)nc(S(=O)(=O)CCCC(=O)NCc2ccc(F)cc2)n1 | 6.03 µM |
| O=C1C(C2=C(O)c3ccccc3C2=O)=Nc2ccccc21 | 2.98 µM |
| CCOC(=O)N1CCC(c2cc(=O)n(-c3ccccc3)[nH]2)CC1 | 6.18 µM |
| CC1(C)CC(CCNC(=O)CCl)(c2ccccc2)CCO1 (stereo not given) | 21.3 µM |
| O=C(c1cccs1)[C@@H]1[C@@H]2C(=O)N(Cc3ccc4c(c3)OCO4)C(=O)[C@@H]2C2c3ccccc3C=CN21 (stereo not given in full) | 3.81 µM |

| SMILES | AC50 |
| --- | --- |
| O=C(Cc1ccccc1)NC1(O)C(=O)c2ccccc2C1=O | 7.01 µM |
| CC1=NN(c2ccc(C)cc2C)C(=O)C1C(c1ccccc1)C1C(=O)N(c2ccc(C)cc2C)N=C1C (stereo not given) | 3.04 µM |
| CC(C)(C)c1csc(Sc2ccc([N+](=O)[O-])cn2)n1 | 14.2 µM |
| COc1ccc(C(=O)Nc2ccc(O)c3ccccc23)cc1 | 3.85 µM |
| O=C(CCl)Nc1ccc(N2CCCCCC2)cc1 | 6.59 µM |
| Cc1ccccc1CS(=O)(=O)c1ncc(Cl)c(C(=O)Nc2ccc(F)cc2)n1 | > 38 µM (inactive) |
| Cc1cccc(C)c1-n1cccc1/C=C1\SC(=S)N(c2cccc(C(=O)O)c2)C1=O | 7.18 µM |
| COc1cc(C(C(=O)NC2CCCCC2)N(CCN2CCOCC2)C(=O)C2COc3ccccc3O2)cc(OC)c1OC (stereo not given) | > 38 µM (inactive) |
| CSc1nc(=S)n(-c2ccc([N+](=O)[O-])cc2)c(C)c1C(C)=O | > 38 µM (inactive) |
| N#CCCN(C(=O)CCl)c1cccc(Cl)c1 | 38.9 µM |
| COc1ccc(-c2csc(CCN3N=C(C)CC3=O)n2)cc1 | 10.1 µM |
| Cc1ccc(NC2=C(N3CCCCC3)C(=O)c3ccccc3C2=O)cc1 | 8.12 µM |
| CCC1C(=O)N(c2nc(C)cc(C)n2)N=C1C (stereo not given) | > 38 µM (inactive) |
| Cn1ncnc2c(=O)n(C)c(=O)nc1-2 | 0.0837 µM |
| CC(=O)N1CCC2(CC1)C(C#N)=C(N)Oc1n[nH]c(C)c12 | > 38 µM (inactive) |
| O=C(C(=C1N(Cc2ccc(Cl)nc2)CCN1Cc1ccc(Cl)nc1)[N+](=O)[O-])C(Cl)Cl | > 38 µM (inactive) |
| Cc1cc(C(=O)CN2C(=O)c3ccccc3C2=O)c(C)n1C1CC1 | > 38 µM (inactive) |
| Cc1sc(NC(=O)CCl)c(C(=O)c2ccccc2)c1C | 5.28 µM |
| COc1ccc(C2C(O)C(c3c[nH]c4ccccc34)=NN2C(=O)CCl)cc1 (stereo not given) | 1.22 µM |
| CC1=C(C)CC2(SC1)C(=O)N(c1ccccc1)N=C2N (stereo not given) | > 38 µM (inactive) |
| CCOc1cc(/C=C2/C(=N)N3C(=NC2=O)SN=C3S(=O)(=O)C(C)C)ccc1OC(=O)c1ccco1 | > 38 µM (inactive) |
| Cc1ccc(Nc2cc(C)nn2-c2nc(C)cc(=O)[nH]2)cc1 | 5.05 µM |
| CCOC(=O)C1=C(C)NC(SCc2cc(=O)[nH][nH]2)=C(C#N)C1c1cccs1 (stereo not given) | 4.69 µM |
| CN(C(=O)C(Cl)Cl)c1ccc(OC(=O)c2ccco2)cc1 | > 38 µM (inactive) |
| CCn1c(-c2ccccc2)c(C(=O)CCl)c2ccccc21 | 6.01 µM |
| COc1ccc(-n2c(C)cc(C(=O)CCl)c2C)cc1 | 13.6 µM |
| COc1ccc(C(CCN(Cc2ccc(OC)c(OC)c2)C(=O)CCl)c2ccccc2)cc1 (stereo not given) | 0.613 µM |

| SMILES | AC50 |
| --- | --- |
| O=Cc1ccc(Sc2nnc(-c3ccccc3)o2)c([N+](=O)[O-])c1 | 21 µM |
| COc1ccc(OC)c(N2C(=O)C(Cl)=C(N3CCCCC3)C2=O)c1 | > 38 µM (inactive) |
| [O-]C1=N/[N+](=C/c2ccccc2)CC1 | > 38 µM (inactive) |
| COc1ccc(NC(=O)c2cccc(N3C(=O)C4C5C=CC(C5)C4C3=O)c2)cc1Cl (stereo not given) | > 38 µM (inactive) |
| O=C(Nc1ccccc1)c1nnsc1S(=O)(=O)c1ccc(Cl)cc1 | > 38 µM (inactive) |
| CCOc1ccc(CN2CCN(CC3=Cc4cccc(OC)c4OC3)CC2CCO)cc1 (stereo not given) | > 38 µM (inactive) |
| N#C/C(=C\c1ccc(O)c([N+](=O)[O-])c1)c1nc2ccccc2s1 | 33.8 µM |
| CCOC(=O)c1c(NC(=O)CCl)sc(CN(C)C)c1-c1ccccc1 | 20.4 µM |
| CNCC(O)CN(c1ccccc1)c1ccccc1 (stereo not given) | 10.5 µM |
| O=C1C=C(Nc2ccccc2)c2ccccc2C1=O | 5.18 µM |
| COc1ccc(OC)c(C(c2c(C)[nH][nH]c2=O)c2c(C)[nH][nH]c2=O)c1 | 13.5 µM |
| O=[N+]([O-])C(/C=C(/Cl)[N+](=O)[O-])=C(N1CCCCC1)N1CCCCC1 | > 38 µM (inactive) |
| O=[N+]([O-])c1cccc(C=Nc2cccc3ccccc23)c1O | > 38 µM (inactive) |
| O=C1c2ccccc2-c2onc3ccc(N4CCCC4)c1c23 | > 38 µM (inactive) |
| Cc1[nH]nc2c1C1(CCC(c3ccccc3)CC1)C(C#N)=C(N)O2 (stereo not given) | > 38 µM (inactive) |
| COc1ccc(/C=C2\SC(=S)N(CCCC(=O)Nc3ccc(O)cc3)C2=O)cc1 | > 38 µM (inactive) |
| O=C(N/N=C/c1ccc(-c2ccccc2[N+](=O)[O-])o1)[C@H]1C[C@@H]1c1ccccc1 | 9.01 µM |
| COc1ccc(/C=C(/C#N)C(=O)Nc2ccc(O)cc2)cc1C(=O)O | > 38 µM (inactive) |
| CNC(=O)c1nnsc1S(=O)(=O)c1ccc(Cl)cc1 | > 38 µM (inactive) |
| COc1ccc(-n2nc3c(c2NC(=O)CCl)CSC3)cc1 | 26.9 µM |
| CCCSc1cc(NCCOC(=O)CCC)c([N+](=O)[O-])c2nonc12 | > 38 µM (inactive) |
| Nc1scc2c(C(=O)N/N=C/c3ccc(Cl)cc3)nn(-c3ccccc3)c(=O)c12 | 28.1 µM |
| OCCN(CCO)c1ccc(C(c2ccccc2Cl)c2ccc(N(CCO)CCO)cc2Cl)c(Cl)c1 | 4.12 µM |
| [O-][N+]1=c2ccc(Nc3ccccc3)cc2=NC12CCCCC2 | 16.7 µM |
| Cc1[nH][nH]c(=O)c1C(c1ccc([N+](=O)[O-])cc1)c1c(C)[nH][nH]c1=O | 25.4 µM |
| CC(C)(C)OC(=O)NCCc1nnc(S(=O)(=O)Cc2ccc(Cl)cc2Cl)o1 | > 38 µM (inactive) |
| Cc1ccc(C)c(NC(=O)CSc2n[nH]c(-c3ccccn3)n2)c1 | > 38 µM (inactive) |

| SMILES | AC50 |
| --- | --- |
| Cc1ccc(N(C(=O)CCl)C(C(=O)NC2CCCCC2)c2cccnc2)cc1C (stereo not given) | 1 µM |
| COc1cccc(-c2[nH]nc3c2C(c2ccc(C)o2)C(C#N)=C(N)O3)c1 (stereo not given) | 26.2 µM |
| COc1ccc(N2C(=O)C(Cl)=C(N3CCOCC3)C2=O)cc1 | > 38 µM (inactive) |
| Cc1cc(=O)n(CCCc2ccccc2)[nH]1 | 36.5 µM |
| CCn1nc(/C=C/c2ccccc2)nc2c(=O)n(C)c(=O)nc1-2 | 0.0666 µM |
| Cc1cccn2c(CNCC3(c4ccccc4)CCCC3)c(C(=O)N3CCOCC3)nc12 | > 38 µM (inactive) |
| Cc1ccccc1N1C(=O)c2ccccc2C1Nc1cccnc1 (stereo not given) | > 38 µM (inactive) |
| Nc1ccc2nc(CCCCc3nc4ccccc4[nH]3)[nH]c2c1 | > 38 µM (inactive) |
| CCS(=O)(=O)c1ncc(Cl)c(C(=O)Nc2ccc(S(=O)(=O)N(C)c3ccccc3)cc2)n1 | 1.66 µM |
| CC(CCn1cccn1)NC(=O)CCc1nnc(CCc2ccccc2)o1 (stereo not given) | > 38 µM (inactive) |
| CC1=C(C)/C(=N/OC(=O)c2cccc([N+](=O)[O-])c2)C=CC1=O | > 38 µM (inactive) |
| Oc1cccc(C=Nc2cccc3ccccc23)c1O | 4.42 µM |
| O=C1CCCC2=C1C(c1ccc3c(c1)OCO3)c1c([nH]n(-c3ccccc3)c1=O)N2 (stereo not given) | 6.7 µM |
| CCOc1ccc(C2C(C#N)=C(N)Oc3n[nH]c(C)c32)cc1OC(=O)C1CC1 (stereo not given) | > 38 µM (inactive) |
| CC(=O)c1ccc(OC(=O)c2cccs2)cc1 | > 38 µM (inactive) |
| Oc1ccc(Nc2nc(-c3ccc4ccccc4c3)cs2)cc1 | > 38 µM (inactive) |
| COc1ccc(S(=O)(=O)Nc2cc(SCC(=O)O)c(O)c3ccccc23)cc1 | 2.14 µM |
| O=C1C=C(NCCN2CCOCC2)C(=O)c2cnccc21 | 1.54 µM |
| COc1cc(C(c2c(C)[nH][nH]c2=O)c2c(C)[nH][nH]c2=O)cc(Cl)c1O | 2.2 µM |
| CC(=O)Nc1ccc(S(=O)(=O)/N=C2\C(=O)c3ccccc3C([O-])=C2n2cc[n+](-c3ccccn3)c2)cc1 | 5.71 µM |
| O=C1/C(=C/c2ccc3c(c2)OCO3)CCC/C1=C\c1ccc2c(c1)OCO2 | > 38 µM (inactive) |
| COc1ccc(/C=C2/C(=O)N(c3ccccc3)N=C2C)cc1OC | 5.49 µM |
| COc1ccccc1-c1cc(C(F)(F)F)nc(S(=O)(=O)CCCC(=O)N2CCOCC2)n1 | 13.6 µM |
| COc1cc(C2(c3ccc(O)c(OC)c3)C(=O)Nc3c(C)cc(Br)cc32)ccc1O | 9.32 µM |

Source: PubChem BioAssay AID449750 (Broad Institute, 2010)
